Patent publication US20100104566A1, “ANTITUMOR COMBINATION COMPRISING A MORPHOLINYL ANTHRACYCLINE AND AN ANTIBODY” (NERVIANO MEDICAL SCIENCES S.R.L., priority 2007, published 2010)

Test system: Human prostate carcinoma DU145 cells
Assay: In vivo antitumor efficacy of nemorubicin in combination with bevacizumab (tumor growth delay)
Set-up: species or system Balb Nu/Nu, male mice (athymic mice)
Conditions: DU145 s.c. in athymic mice; for Time to reach 1 g: advanced tumors, bevacizumab 20 mg/kg i.p. day 9, 13, 17, 21, 25, 29, nemorubicin 0.065 mg/kg i.v. day 9, 16, 23; for T-C: delay vs control to reach 1 g, bevacizumab 20 mg/kg i.p., nemorubicin 0.065 mg/kg i.v. q7dx3
Description: Materials and Methods: Balb Nu/Nu, male mice (athymic mice from Harlan, Italy) were maintained in cages with paper filter covers, food and bedding sterilized and water acidified. Human prostate carcinoma DU145 cells (from American Type Culture Collection) were implanted subcutaneously in athymic mice (2.5×10^6/cells mice). […] Drug treatments were performed on advanced tumors (when the tumors were palpable). Nemorubicin and bevacizumab were prepared immediately before use ad administered to mice in a volume of 10 ml/kg. Nemorubicin was administered as hydrochloride salt intravenously at a dose of 0.065 mg/kg and treatments were repeated weekly for 3 weeks. Bevacizumab was administered intraperitoneally at a dose of 20 mg/kg on the days 9, 13, 17, 21, 25 and 29 from the day of cell injection. When both compounds were administered on the same day, bevacizumab was administered intraperitoneally immediately before the intravenous injection of nemorubicin. Tumor growth and net body weight were evaluated every 3 days. Tumor growth was assessed by caliper. The two diameters were recorded, and the tumor weight was calculated according to the following formula: length (mm)×width^2 (mm)/2. The effect of the antitumor treatment was determined as the delay in the onset of an exponential growth of tumors [see for reference, Anti Cancer Drugs 7: 437-60, 1996]. This delay (T-C value) was defined as the difference of the time (in days) required for the treatment group (T) and the control group (C) tumors to reach a predetermined size (e.g. 1 g). Toxicity was evaluated on the basis of the body weight reduction.

Compound | Time to reach 1 g | T-C
COc1cccc2c1C(=O)c1c(O)c3c(c(O)c1C2=O)C[C@@](O)(C(=O)CO)C[C@@H]3O[C@H]1C[C@H](N2CCO[C@H](OC)C2)[C@H](O)[C@H](C)O1 [Nemorubicin, (8S-cis, 2″S)-7,8,9,10-tetrahydro-6,8,11-trihydroxy-8-(hydroxyacetyl)-1-methoxy-10-{[2,3,6-trideoxy-3-(2-methoxy-4-morpholinyl)-α-L-lyxo-hexopyranosyl]oxy}-5,12-naphthacenedione] | 18.95 days | 4.68 days
Bevacizumab: monoclonal antibody directed against the vascular endothelial growth factor (VEGF) | 21.31 days | 7.04 days
